Data as given in patent US20060216330A1, “Peptides having an ace inhibiting effect” (priority 2003, published 2006).
Where two headings read alike, the source gives them in different places. Ends that are not written are not given here. Peptide text beside a SMILES is read from it.

Assays:
ACE = ACE (Homo sapiens, UniProt P12821); experiment: ACE activity measurement with fluorogenic substrate Abz-FRK(Dnp)P-OH
Protocol: ACE activity with the fluorogenic substrate Abz-FRK(Dnp)P—OH was monitored in 0.1 M Tris buffer pH 7.0, containing 100 mM NaCl. […] The ACE activity was continuously followed in a Fluostar (BMG) fluorometer with 2 dispensers by measuring the fluorescence at λex: 320 nm and λem: 420 nm.

[1] = test system: spontaneously hypertensive rats; settings: Abubakar et al., 1998; cited from earlier work
[2] = In vitro gastro-intestinal digestion of Biozate (artificial human gastro intestinal tract)
Protocol: The stability of peptides in the human gastro-intestinal tract was studied by subjecting Biozate™ to typical conditions in the stomach and small intestine. Gastric conditions were mimicked by dissolving 5.0 g Biozate™, 2.1 g NaCl, 0.1 g NaH2PO4, 0.45 g lipase and 2.9 g pepsin in 900 mL of Millipore Q water. The fluid was adjusted to pH 3.5 with HCl, stirred with a peddle (50 rpm) and kept at 37° C. for 60 min. Subsequently, intestinal conditions were mimicked by adding 9.0 g pancreatin to the simulated gastric fluid and adjusting the pH to 6.8 with NaHCO3. The simulated intestinal fluid was incubated at 37° C. and continuous stirring (50 rpm) for 120 min. Samples were collected at different time points during the in vitro gastro-intestinal digestion. After collection, samples were directly heated at 95° C. for 30 min and subsequently stored at −20° C.
At certain times samples were taken from the GIT model system.

ACE, sequence (P12821 30-1306, species assumed): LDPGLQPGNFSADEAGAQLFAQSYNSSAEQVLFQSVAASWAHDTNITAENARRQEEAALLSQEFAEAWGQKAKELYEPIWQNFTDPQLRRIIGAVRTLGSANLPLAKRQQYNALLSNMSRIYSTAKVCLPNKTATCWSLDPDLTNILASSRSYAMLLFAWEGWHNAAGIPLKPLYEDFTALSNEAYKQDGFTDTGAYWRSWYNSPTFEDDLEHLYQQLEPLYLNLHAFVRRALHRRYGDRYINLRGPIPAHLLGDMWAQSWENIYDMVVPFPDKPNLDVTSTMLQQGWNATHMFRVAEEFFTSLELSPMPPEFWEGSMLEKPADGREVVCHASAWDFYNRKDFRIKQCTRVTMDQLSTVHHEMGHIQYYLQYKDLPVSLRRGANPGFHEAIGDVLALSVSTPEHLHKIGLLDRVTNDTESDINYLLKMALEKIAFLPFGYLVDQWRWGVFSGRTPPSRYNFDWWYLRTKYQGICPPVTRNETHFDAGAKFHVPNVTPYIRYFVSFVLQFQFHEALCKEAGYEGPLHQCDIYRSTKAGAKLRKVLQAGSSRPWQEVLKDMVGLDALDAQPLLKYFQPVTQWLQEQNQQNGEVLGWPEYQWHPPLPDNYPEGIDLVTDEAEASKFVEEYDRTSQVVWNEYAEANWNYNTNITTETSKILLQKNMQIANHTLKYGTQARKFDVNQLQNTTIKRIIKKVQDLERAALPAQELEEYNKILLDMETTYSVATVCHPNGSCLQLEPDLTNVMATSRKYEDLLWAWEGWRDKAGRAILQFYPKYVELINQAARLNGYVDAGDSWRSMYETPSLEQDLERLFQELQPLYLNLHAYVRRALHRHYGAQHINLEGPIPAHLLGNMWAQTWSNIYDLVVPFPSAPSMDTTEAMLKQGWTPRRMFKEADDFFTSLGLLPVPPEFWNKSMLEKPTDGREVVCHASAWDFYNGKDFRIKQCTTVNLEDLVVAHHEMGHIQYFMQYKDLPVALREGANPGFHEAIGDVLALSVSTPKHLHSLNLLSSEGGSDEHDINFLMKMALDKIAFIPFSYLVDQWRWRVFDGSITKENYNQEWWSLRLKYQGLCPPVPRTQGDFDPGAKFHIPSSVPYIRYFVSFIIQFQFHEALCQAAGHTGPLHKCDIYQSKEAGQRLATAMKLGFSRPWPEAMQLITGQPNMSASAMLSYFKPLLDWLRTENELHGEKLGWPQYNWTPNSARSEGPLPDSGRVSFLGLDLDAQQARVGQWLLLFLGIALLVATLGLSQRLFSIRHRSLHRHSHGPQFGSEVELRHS

Row | Compound | IC50 (ACE) | antihypertensive activity [1] | Concentration, Original solution ([2]; Biozate original solution before digestion) | Concentration, t = 0 min ([2]; t = 0 min, simulated gastric fluid pH 3.5, 37° C.) | Concentration, t = 60 min ([2]; t = 60 min, end of gastric phase) | Concentration, t = 65 min ([2]; t = 65 min, simulated intestinal fluid (pancreatin, pH 6.8)) | Concentration, t = 75 min ([2]; t = 75 min, simulated intestinal fluid) | Concentration, t = 90 min ([2]; t = 90 min, simulated intestinal fluid) | Concentration, t = 120 min ([2]; t = 120 min, simulated intestinal fluid) | Concentration, t = 150 min ([2]; t = 150 min, simulated intestinal fluid) | Concentration, t = 180 min ([2]; t = 180 min, simulated intestinal fluid) | Concentration, t = 0 min (pH 3.5) | Concentration, t = 65 min (pH 6.8)
1 | CC[C@H](C)[C@H](N)C(=O)N1CCC[C@H]1C(=O)N[C@@H](C)C(=O)O [IPA] (H-Ile-Pro-Ala-OH; N-terminus and C-terminus assumed) | 50 µM | has antihypertensive activity | 0 ng/mL | 0 ng/mL | 0 ng/mL | 9000 ng/mL | 9000 ng/mL | 9000 ng/mL | 9000 ng/mL | 14000 ng/mL | 17000 ng/mL |  | 
2 | IPAVFK [IPAVFK] | 120 µM |  |  |  |  |  |  |  |  |  |  | 26000 ng/mL | 3000 ng/mL
